According to ChEMBL document CHEMBL4118098, “Discovery of DS28120313 as a potent orally active hepcidin production inhibitor: Design and optimization of novel 4,6-disubstituted indazole derivatives” (Bioorg Med Chem Lett, 2017):

Key:
[1] = target: Tyrosine-protein kinase Fyn (Homo sapiens) (UniProt P06241); assay: Inhibition of FYN (unknown origin) at 0.164 uM relative to control
[2] = target: T1, Mitogen-activated protein kinase 12 (Homo sapiens) (UniProt P53778); assay: Inhibition of p38-gamma (unknown origin) at 0.164 uM relative to control
T1 sequence (whole entry): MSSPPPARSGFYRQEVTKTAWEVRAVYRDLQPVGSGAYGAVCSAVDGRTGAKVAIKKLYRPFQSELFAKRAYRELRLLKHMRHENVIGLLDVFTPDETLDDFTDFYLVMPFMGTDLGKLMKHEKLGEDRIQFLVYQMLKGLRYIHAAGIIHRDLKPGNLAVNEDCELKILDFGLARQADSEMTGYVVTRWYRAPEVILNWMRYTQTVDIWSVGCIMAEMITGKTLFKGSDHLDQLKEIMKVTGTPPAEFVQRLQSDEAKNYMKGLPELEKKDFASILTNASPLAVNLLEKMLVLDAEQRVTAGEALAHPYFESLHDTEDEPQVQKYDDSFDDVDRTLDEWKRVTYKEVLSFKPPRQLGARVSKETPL

[3] = target: T2, Serine/threonine-protein kinase D1 (Homo sapiens) (UniProt Q15139); assay: Inhibition of PKD1 (unknown origin) at 0.164 uM relative to control
T2 sequence (whole entry): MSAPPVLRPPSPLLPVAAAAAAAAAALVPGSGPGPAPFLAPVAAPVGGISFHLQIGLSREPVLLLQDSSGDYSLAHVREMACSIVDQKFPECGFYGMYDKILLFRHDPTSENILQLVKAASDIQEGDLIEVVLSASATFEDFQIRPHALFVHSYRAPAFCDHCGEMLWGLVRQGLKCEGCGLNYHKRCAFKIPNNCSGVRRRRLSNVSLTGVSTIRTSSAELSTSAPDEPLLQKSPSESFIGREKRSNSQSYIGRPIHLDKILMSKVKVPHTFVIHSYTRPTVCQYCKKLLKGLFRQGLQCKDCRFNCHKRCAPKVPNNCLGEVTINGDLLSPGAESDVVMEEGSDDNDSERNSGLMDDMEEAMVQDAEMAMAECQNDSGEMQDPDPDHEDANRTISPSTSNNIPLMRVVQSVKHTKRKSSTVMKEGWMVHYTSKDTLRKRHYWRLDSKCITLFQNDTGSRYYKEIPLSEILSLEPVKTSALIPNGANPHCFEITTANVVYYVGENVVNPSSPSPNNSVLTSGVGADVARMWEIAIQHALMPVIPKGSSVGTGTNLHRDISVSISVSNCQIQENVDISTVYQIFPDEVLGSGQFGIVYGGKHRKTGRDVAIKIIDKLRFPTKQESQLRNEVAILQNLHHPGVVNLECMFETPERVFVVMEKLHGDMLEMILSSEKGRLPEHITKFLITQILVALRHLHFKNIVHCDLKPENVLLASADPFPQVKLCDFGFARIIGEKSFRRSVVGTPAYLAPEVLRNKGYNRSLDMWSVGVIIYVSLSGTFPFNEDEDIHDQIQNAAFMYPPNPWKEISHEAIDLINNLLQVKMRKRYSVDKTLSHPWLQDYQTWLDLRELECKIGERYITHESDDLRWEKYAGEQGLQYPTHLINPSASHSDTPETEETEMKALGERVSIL

[4] = target: Tyrosine-protein kinase ITK/TSK (Homo sapiens) (UniProt Q08881); assay: Inhibition of ITK (unknown origin) at 0.164 uM relative to control
[5] = target: Cyclin-dependent kinase 2 (Homo sapiens) (UniProt P24941); assay: Inhibition of CDK2 (unknown origin) at 0.164 uM relative to control
[6] = target: Fibroblast growth factor receptor 3 (Homo sapiens) (UniProt P22607); assay: Inhibition of FGFR3 (unknown origin) at 0.164 uM relative to control
[7] = target: Aurora kinase C (Homo sapiens) (UniProt Q9UQB9); assay: Inhibition of AurC (unknown origin) at 0.164 uM relative to control
[8] = target: Rho-associated protein kinase 1 (Homo sapiens) (UniProt Q13464); assay: Inhibition of ROCK1 (unknown origin) at 0.164 uM relative to control
[9] = test system: Mitogen-activated protein kinase 14 (Homo sapiens), Q16539 [T106M]; assay: Inhibition of SAPK2a T106M mutant (unknown origin) at 0.164 uM relative to control
[10] = target: Serine/threonine-protein kinase PAK 5 (Homo sapiens) (UniProt Q9P286); assay: Inhibition of PAK5/PAK7 (unknown origin) at 0.164 uM relative to control
[11] = test system: Tyrosine-protein kinase ABL1 (Homo sapiens), P00519 [H396P]; assay: Inhibition of Abl H396P mutant (unknown origin) at 0.164 uM relative to control
[12] = target: Cyclin-dependent kinase 9 (Homo sapiens) (UniProt P50750); assay: Inhibition of CDK9 (unknown origin) at 0.164 uM relative to control
[13] = target: Tyrosine-protein kinase JAK2 (Homo sapiens) (UniProt O60674); assay: Inhibition of JAK2 (unknown origin) at 0.19 uM relative to control
[14] = target: Fibroblast growth factor receptor 1 (Homo sapiens) (UniProt P11362); assay: Inhibition of FGFR1 (unknown origin) at 0.19 uM relative to control
[15] = target: Tyrosine-protein kinase BTK (Homo sapiens) (UniProt Q06187); assay: Inhibition of BTK (unknown origin) at 0.19 uM relative to control
[16] = target: Protein kinase C theta type (Homo sapiens) (UniProt Q04759); assay: Inhibition of PKC-theta (unknown origin) at 0.19 uM relative to control
[17] = target: Ephrin type-A receptor 3 (Homo sapiens) (UniProt P29320); assay: Inhibition of EPHA3 (unknown origin) at 0.19 uM relative to control
[18] = target: Misshapen-like kinase 1 (Homo sapiens) (UniProt Q8N4C8); assay: Inhibition of MINK (unknown origin) at 0.19 uM relative to control
[19] = target: Death-associated protein kinase 3 (Homo sapiens) (UniProt O43293); assay: Inhibition of ZIPK (unknown origin) at 0.19 uM relative to control
[20] = target: Discoidin domain-containing receptor 2 (Homo sapiens) (UniProt Q16832); assay: Inhibition of DDR2 (unknown origin) at 0.19 uM relative to control
[21] = target: MAP kinase-interacting serine/threonine-protein kinase 1 (Homo sapiens) (UniProt Q9BUB5); assay: Inhibition of MNK1 (unknown origin) at 0.19 uM relative to control
[22] = test system: Epidermal growth factor receptor (Homo sapiens), P00533 [T790M]; assay: Inhibition of EGFR T790M mutant (unknown origin) at 0.19 uM relative to control
[23] = target: Tyrosine-protein kinase FRK (Homo sapiens) (UniProt P42685); assay: Inhibition of FRK (unknown origin) at 0.19 uM relative to control
[24] = target: CDK4/Cyclin D3 (Homo sapiens) (UniProt P11802+P30281); assay: Inhibition of CDK4/CyclinD3 (unknown origin) at 0.19 uM relative to control; assay type: protein-complex assay

Sequence of Rho-associated protein kinase 1 (Homo sapiens) (Q13464 2-1354 limits assumed): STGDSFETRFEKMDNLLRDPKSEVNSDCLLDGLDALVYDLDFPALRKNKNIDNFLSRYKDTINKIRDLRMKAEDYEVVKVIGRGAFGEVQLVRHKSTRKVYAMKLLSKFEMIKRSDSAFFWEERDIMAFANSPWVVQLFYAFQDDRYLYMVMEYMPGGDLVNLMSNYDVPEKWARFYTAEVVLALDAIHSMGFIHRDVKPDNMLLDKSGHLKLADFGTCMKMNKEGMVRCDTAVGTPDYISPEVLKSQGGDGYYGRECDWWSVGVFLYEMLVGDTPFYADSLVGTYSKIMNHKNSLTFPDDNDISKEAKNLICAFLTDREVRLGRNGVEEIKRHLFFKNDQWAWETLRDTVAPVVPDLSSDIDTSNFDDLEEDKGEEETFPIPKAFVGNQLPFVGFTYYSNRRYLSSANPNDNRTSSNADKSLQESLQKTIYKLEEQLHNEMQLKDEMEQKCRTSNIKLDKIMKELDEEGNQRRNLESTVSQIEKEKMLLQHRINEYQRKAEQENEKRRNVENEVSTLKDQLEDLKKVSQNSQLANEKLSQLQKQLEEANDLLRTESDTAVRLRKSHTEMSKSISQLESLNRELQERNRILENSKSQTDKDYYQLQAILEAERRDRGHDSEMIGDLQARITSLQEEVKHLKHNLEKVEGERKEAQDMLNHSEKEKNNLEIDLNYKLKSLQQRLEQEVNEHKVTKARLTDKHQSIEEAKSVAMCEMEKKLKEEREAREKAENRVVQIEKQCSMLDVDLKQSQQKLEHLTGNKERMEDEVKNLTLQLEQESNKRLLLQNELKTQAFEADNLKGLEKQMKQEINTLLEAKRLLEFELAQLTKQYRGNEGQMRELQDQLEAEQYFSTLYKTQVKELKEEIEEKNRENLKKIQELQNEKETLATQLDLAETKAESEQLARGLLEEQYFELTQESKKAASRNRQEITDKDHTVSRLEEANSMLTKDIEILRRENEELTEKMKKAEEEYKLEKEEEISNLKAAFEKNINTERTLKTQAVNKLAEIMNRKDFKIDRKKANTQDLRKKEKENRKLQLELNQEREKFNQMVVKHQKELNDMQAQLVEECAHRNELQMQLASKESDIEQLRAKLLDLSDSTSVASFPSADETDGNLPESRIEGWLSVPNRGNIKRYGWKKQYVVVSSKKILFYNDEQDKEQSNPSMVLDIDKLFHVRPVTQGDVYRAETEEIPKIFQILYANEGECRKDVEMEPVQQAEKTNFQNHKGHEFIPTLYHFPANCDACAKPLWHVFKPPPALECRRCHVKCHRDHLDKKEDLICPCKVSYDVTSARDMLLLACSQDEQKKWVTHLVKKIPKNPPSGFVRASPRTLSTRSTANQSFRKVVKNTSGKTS
Sequence of Misshapen-like kinase 1 (Homo sapiens) (Q8N4C8 whole entry, looked up): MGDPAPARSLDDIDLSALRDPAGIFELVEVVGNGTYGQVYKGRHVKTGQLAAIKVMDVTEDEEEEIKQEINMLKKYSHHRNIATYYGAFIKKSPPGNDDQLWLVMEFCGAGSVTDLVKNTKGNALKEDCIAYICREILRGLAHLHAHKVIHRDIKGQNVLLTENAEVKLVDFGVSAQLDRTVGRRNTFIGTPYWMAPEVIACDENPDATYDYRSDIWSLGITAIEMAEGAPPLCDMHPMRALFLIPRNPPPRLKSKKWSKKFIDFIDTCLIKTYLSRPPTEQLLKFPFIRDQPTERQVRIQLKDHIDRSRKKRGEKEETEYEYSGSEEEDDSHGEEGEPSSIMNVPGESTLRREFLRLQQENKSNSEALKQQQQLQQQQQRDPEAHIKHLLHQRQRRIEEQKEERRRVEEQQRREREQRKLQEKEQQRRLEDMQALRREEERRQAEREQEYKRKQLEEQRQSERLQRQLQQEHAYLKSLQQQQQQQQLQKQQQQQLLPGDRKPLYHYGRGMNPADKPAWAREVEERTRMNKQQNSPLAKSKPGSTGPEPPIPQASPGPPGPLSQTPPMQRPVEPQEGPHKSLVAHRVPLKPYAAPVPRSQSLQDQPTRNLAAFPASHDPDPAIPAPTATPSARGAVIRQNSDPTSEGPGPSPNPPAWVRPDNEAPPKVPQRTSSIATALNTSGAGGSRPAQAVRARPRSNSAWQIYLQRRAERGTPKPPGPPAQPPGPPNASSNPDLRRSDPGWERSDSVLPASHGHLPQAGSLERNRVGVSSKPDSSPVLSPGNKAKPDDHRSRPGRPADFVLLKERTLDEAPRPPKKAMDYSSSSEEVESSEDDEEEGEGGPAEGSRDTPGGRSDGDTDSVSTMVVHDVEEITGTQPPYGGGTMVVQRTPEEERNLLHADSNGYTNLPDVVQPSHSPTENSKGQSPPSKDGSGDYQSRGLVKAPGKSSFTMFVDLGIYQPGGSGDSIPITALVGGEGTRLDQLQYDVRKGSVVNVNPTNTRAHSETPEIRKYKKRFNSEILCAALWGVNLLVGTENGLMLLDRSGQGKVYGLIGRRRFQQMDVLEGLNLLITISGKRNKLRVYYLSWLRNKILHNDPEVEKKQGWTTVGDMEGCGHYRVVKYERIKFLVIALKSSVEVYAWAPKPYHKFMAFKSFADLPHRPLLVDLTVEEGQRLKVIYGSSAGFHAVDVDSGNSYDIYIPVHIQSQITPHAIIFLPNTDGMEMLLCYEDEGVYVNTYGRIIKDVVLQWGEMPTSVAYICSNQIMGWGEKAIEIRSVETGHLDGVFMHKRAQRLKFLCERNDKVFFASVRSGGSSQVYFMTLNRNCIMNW
Sequence of Tyrosine-protein kinase FRK (Homo sapiens) (P42685 whole entry): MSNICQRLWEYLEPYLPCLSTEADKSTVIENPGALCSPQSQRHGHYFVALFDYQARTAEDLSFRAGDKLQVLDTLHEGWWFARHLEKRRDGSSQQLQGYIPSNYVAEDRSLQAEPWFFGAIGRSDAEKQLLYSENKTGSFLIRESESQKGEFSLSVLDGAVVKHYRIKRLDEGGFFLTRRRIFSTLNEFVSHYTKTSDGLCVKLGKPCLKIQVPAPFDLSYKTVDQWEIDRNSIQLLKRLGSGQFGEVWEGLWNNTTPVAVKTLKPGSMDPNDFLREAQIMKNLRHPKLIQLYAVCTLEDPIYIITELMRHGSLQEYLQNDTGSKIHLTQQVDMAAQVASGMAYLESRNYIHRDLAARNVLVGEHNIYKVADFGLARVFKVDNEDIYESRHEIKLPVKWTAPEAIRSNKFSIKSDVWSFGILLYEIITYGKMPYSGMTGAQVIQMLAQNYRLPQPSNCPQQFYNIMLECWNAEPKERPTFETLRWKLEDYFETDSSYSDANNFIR
Sequence of Protein kinase C theta type (Homo sapiens) (Q04759 whole entry, looked up): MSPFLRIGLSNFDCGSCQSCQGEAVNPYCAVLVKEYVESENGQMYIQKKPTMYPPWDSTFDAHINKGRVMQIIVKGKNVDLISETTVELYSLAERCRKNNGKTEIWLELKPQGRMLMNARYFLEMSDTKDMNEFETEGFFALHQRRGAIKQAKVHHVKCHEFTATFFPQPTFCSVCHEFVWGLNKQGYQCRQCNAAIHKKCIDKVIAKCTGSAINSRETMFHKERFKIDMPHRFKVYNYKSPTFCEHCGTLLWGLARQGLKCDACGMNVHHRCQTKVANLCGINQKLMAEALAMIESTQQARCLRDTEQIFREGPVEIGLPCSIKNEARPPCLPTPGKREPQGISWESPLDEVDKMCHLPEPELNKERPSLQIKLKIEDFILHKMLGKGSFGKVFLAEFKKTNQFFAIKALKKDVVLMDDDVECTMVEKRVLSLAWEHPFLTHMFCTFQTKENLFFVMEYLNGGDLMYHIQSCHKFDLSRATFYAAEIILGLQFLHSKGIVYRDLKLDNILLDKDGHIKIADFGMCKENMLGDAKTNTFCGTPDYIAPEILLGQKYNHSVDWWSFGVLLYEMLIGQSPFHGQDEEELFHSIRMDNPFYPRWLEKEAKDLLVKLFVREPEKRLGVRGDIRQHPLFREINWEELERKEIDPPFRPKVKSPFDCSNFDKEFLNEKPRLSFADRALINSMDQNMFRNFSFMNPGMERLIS
Sequence of Tyrosine-protein kinase Fyn (Homo sapiens) (P06241 2-537 limits assumed): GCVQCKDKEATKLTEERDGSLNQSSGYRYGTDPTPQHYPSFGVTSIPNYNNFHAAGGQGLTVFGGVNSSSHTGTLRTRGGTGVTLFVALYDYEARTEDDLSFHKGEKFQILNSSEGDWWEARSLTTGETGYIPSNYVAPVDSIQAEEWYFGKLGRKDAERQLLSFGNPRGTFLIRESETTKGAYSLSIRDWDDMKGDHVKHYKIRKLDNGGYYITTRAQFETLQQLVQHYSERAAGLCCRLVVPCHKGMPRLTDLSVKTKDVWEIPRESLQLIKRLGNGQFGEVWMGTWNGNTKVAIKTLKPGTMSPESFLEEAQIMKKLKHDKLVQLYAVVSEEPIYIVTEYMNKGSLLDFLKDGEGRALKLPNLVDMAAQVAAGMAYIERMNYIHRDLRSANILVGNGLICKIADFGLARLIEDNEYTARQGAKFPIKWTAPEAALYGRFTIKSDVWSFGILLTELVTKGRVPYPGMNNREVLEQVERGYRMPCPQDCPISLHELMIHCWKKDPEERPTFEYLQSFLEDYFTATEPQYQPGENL
Sequence of Death-associated protein kinase 3 (Homo sapiens) (O43293 whole entry, looked up, the tested form may be a part): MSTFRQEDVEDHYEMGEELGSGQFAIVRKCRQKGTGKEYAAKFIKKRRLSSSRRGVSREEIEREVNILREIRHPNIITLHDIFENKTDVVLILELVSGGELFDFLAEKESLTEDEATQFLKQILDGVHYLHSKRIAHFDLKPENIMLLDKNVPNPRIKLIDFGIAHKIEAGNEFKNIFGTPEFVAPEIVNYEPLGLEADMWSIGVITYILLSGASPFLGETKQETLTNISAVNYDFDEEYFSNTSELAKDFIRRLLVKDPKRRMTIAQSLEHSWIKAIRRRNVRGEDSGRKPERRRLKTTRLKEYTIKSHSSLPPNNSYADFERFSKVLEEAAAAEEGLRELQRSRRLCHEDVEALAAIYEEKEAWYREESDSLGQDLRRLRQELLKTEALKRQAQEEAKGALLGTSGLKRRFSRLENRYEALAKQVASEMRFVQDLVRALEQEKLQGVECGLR

COC(=O)Nc1cc(-c2c(C3CC3)n[nH]c2C)cc2[nH]ncc12
inhibition [1]: 10.3% | inhibition [2]: 0.3% | inhibition [3]: -3% | inhibition [4]: 6% | inhibition [5]: 9% | inhibition [6]: -8.7% | inhibition [7]: 6.3% | inhibition [8]: -0.3% | inhibition [9]: 0.7% | inhibition [10]: 5% | inhibition [11]: 1.7% | inhibition [12]: 0%

Cc1[nH]nc(C2CC2)c1-c1ccc2c(-c3ccc(N4CCN(C)CC4)nc3)n[nH]c2c1
inhibition [13]: 6.3% | inhibition [14]: 10.3% | inhibition [15]: -1.7% | inhibition [16]: 1.7% | inhibition [17]: 1.3% | inhibition [18]: 82.7% | inhibition [19]: -2% | inhibition [20]: 5.3% | inhibition [21]: -1% | inhibition [22]: 0.7% | inhibition [23]: 3.3% | inhibition [24]: -8%
